Test results as given in publication PMC11988671, “SIRT7 Is a Lysine Deacylase with a Preference for Depropionylation and Demyristoylation” (International Journal of Molecular Sciences, 2025).
Where “and” joins values, the source holds several entries; their conditions need not be identical. Equal entries are not always repeated.

Assays:
HEK293T cells = assay: NAD^+ assay in cells treated with FK866; type: cell-based
Description: HEK293T and Hepa1–6 cells were treated with the NAMPT inhibitor FK866 (500 pM and 8 nM, respectively), and NAD^+ and total NAD^+/NADH cellular levels were determined using an NAD^+/NADH Assay Kit-WST (#N509; Dojindo Laboratories, Kumamoto, Japan). Total NAD^+/NADH and NADH concentrations in one sample were calculated from the calibration curve, then the NAD^+ level was determined by subtracting the NADH value from the total NAD^+/NADH level.

[1] = system: SIRT7-dependent DDB1 deacetylation in HEK293T cells; assay: SIRT7-dependent DDB1 deacetylation (IP and Western blot); type: cell-based; details: FK866 500 pM
Description: (§1) HEK293T cells were treated with FK866 or DMSO for 24 h and transfected with the indicated plasmids using JetPRIME reagents (Polypus, Illkirch-Graffenstaden, France) for an additional 24 h. The cells were lysed in IP buffer (20 mM Tris-HCl pH 7.4, 200 mM NaCl, 2.5 mM MgCl2, 0.05% NP-40, 1 mM PMSF, and protease inhibitor cocktail (Nacalai Tesque)) supplemented with 5 mM NAM and 2.5 µM trichostatin A. The lysate was incubated on ice for 20 min and subsequently sonicated twice at 4 °C with a 20 s interval at 26% amplitude using a Sonifier SFX-150 (Branson Ultrasonics) to disrupt the cells. Following sonication, the lysate was centrifuged at 14,000× g for 15 min at 4 °C to separate cellular debris. For immunoprecipitation, 2 mg protein from each sample was incubated with anti-HA- or anti-DYKDDDDK (FLAG)-tagged beads (Fujifilm Wako Pure Chemical Corp.) for 18 h at 4 °C with gentle rotation. After washing with IP buffer, the proteins were eluted in SDS sample buffer, and lysine acetylation was detected by Western blot with an anti-acetylated lysine antibody.
(§2) For Western blot, proteins were separated by SDS-PAGE and transferred to an Immobilon-P PVDF membrane (Merck Millipore, Burlington, MA, USA), which was probed with primary and secondary antibodies. […]

[2] = system: SIRT1-dependent PPARα deacetylation in HEK293T cells; assay: SIRT1-dependent PPARα deacetylation (IP and Western blot); type: cell-based; details: FK866 500 pM
Description: as §1, §2

[3] = system: Cd36 and Cidec expression in Hepa1–6 cells; assay: Cellular gene expression (real-time quantitative PCR); type: cell-based; details: FK866 8 nM, 48 h
Description: Hepa1–6 cells were exposed to 8 nM FK866 for 48 h, and the cells were incubated without fetal bovine serum for the final 24 h of treatment. Subsequently, total RNA was extracted from the cells utilizing the Sepasol RNA I Super Reagent (Nacalai Tesque). Quantitative reverse transcription (RT)-PCR was conducted using a PrimeScript RT Reagent Kit (RR047A; TaKaRa Bio, Inc., Kusatsu, Japan) followed by TB Green Premix Ex TaqII (RR820A; TaKaRa Bio, Inc.) and an ABI ViiA 7 Real-Time PCR System (Applied Biosystems, Inc., Foster City, CA, USA). The relative expression level of each gene was normalized to that of TATA box-binding protein (Tbp). The following primer sequences were used: Cd36, forward 5′-TTGGCCAAGCTATTGCGACA-3′ and reverse 5′-CTGGAGGGGTGATGCAAAGG-3′; Cidec, forward 5′-GCTGAAGGGGCAGAAGTGGA-3′ and reverse 5′-GCGCTTGGCCTTGTAGCAGT-3′; and Tbp, forward 5′-CCCCTTGTACCCTTCACCAAT-3′ and reverse 5′-GAAGCTGCGGTACAATTCCAG-3′.

SIRT5 = system: SIRT5; parameters: method as in PMID 23028781; details: read-out: Km of SIRT5 for NAD^+; cited from earlier work
SIRT1 [4] = details: compared with own H3K9Ac value; read-out: Km, NAD^+ for SIRT1, value reported previously; cited from earlier work
SIRT4 = system: SIRT4; parameters: method as in PMID 23746352; details: read-out: Km of SIRT4 for NAD^+; cited from earlier work
SIRT7-DNA and SIRT7-RNA = system: SIRT7-DNA and SIRT7-RNA; parameters: method as in PMID 35939806; details: compared with own H3K18Ac value in presence of RNA; read-out: Km, NAD^+ for SIRT7, previously reported value; cited from earlier work
SIRT7 [5] = target: T1, SIRT7 (Mus musculus, UniProt Q8BKJ9); assay: NAM inhibition assay (in vitro deacylation, LC-MS/MS); details: for IC50: IC50, NAM (relative IC50), wild-type SIRT7
T1 sequence (Q8BKJ9 1-402): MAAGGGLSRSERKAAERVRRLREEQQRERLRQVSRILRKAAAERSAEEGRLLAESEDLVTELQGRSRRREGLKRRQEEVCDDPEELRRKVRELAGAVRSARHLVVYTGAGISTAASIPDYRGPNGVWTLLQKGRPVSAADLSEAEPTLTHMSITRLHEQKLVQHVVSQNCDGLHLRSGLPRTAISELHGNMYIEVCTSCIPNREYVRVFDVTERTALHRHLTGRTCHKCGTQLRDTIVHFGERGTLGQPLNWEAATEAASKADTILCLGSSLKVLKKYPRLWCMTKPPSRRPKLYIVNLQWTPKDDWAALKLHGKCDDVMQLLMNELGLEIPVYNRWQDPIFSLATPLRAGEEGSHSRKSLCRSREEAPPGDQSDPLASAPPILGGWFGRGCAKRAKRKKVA

SIRT1 [6] = target: T2, SIRT1 (Mus musculus, UniProt Q923E4); assay: In vitro deacetylation assay of H3K9Ac peptide by SIRT1 (LC-MS/MS); type: biochemical; details: 8 µM peptide, 1.0 mM NAD^+, 2 h, 37 °C
T2 construct: HaloTag (N, cleaved yes); made in house; host or cells: E. coli K12 KRX
T2 sequence (Q923E4 1-737): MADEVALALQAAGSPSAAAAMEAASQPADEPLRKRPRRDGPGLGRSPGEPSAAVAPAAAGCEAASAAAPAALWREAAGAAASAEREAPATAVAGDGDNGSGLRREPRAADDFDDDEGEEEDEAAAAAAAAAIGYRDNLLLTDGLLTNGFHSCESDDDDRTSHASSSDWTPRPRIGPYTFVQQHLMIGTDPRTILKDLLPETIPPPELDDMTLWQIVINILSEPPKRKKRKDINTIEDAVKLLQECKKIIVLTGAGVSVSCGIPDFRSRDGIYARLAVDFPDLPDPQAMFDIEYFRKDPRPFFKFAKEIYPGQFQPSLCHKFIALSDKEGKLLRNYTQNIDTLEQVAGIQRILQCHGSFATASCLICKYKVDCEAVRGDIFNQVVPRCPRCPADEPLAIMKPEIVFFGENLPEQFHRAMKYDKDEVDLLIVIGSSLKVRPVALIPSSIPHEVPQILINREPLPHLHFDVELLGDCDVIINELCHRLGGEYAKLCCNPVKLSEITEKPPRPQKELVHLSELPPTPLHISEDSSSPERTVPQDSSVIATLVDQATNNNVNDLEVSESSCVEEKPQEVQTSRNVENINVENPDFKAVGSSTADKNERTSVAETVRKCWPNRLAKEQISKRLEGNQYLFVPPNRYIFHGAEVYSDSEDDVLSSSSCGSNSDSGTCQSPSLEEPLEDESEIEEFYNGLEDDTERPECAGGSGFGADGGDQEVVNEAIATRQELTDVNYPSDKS
Description: (§3) In the case of the SIRT1 enzymatic reaction, 8 µM peptide was incubated in 50 µL reaction buffer containing 10 mM NaCl, 10 mM KCl, 20 mM Tris-HCl pH 8.0, 1.0 mM NAD^+, and 1 mM DTT, with or without 1 µg recombinant SIRT1. The reaction mixtures were incubated for 24 h for SIRT7 or 2 h for SIRT1 at 37 °C.
(§4) The general conditions for electrospray ionization-MS were as follows: nebulizer gas, N2, delivered at 50 psi; nebulizer gas temperature, 250 °C; capillary voltage, 3500 V; and collision gas, G1 grade N2 (Taiyo Nippon Sanso Corporation, Tokyo, Japan).

SIRT7 [7] = target: T1, SIRT7; assay: In vitro deacylation assay of acyl-modified H3K18 peptides by SIRT7 (LC-MS/MS); type: biochemical; parameters: HaloTag (N, cleaved yes); made in house; host or cells: E. coli K12 KRX; details: 8 μM peptide (glutaryl 100 µM), 1.0 mM NAD^+, RNA, 24 h, 37 °C
Description: as §3, §4

[8] = succinyl H3K18 peptide substrate

O=C(/C=C/c1cccnc1)NCCCCC1CCN(C(=O)c2ccccc2)CC1 [FK866]
Cellular NAD^+ levels (HEK293T cells): decreased | SIRT7-mediated DDB1 deacetylation [1]: abolished | Deacetylation of PPARα by SIRT1 [2]: not abolished | Cd36 expression [3]: significantly decreased | Cidec expression [3]: significantly decreased

NC(=O)c1ccc[n+]([C@@H]2O[C@H](COP(=O)([O-])OP(=O)(O)OC[C@H]3O[C@@H](n4cnc5c(N)ncnc54)[C@H](O)[C@@H]3O)[C@@H](O)[C@H]2O)c1 [NAD^+, Nicotinamide adenine dinucleotide]
Km (SIRT5): 980 µM | Km (SIRT1 [4]): 29 µM | Km (SIRT4): 35 µM | Km (SIRT7-DNA and SIRT7-RNA): 480 µM

NC(=O)c1cccnc1 [NAM, Nicotinamide]
IC50 (SIRT7 [5]; acetyl H3K18 peptide substrate): 23 µM and 23.2 µM | IC50 (SIRT7 [5]; butyryl H3K18 peptide substrate): 613 ± 63.8 µM | IC50 (SIRT7 [5]; myristoyl H3K18 peptide substrate): 286 ± 25.1 µM | IC50 (SIRT7 [5]; octanoyl H3K18 peptide substrate): 1110 ± 216 µM | IC50 (SIRT7 [5]; palmitoyl H3K18 peptide substrate): 544 ± 83.7 µM | IC50 (SIRT7 [5]; propionyl H3K18 peptide substrate): 787 ± 118 µM | IC50 (SIRT7 [5]; [8]): 1230 ± 268 µM | NAM inhibition of the desuccinylation reaction (SIRT7 [5]; [8]): did not completely inhibit

NH2-ARTKQTARK^AcetylSTGGKAPRKQLC-COOH [H3K9Ac]
Loss of H3K9Ac peptide and formation of deacetylated H3K9 peptide with recombinant SIRT1 (SIRT1 [6]): detected

NH2-KSTGGKAPRK^ButyrylQLATKAARKS-COOH [butyryl H3K18 peptide]
Hydrolysis of acyl H3K18 peptide by SIRT7 (SIRT7 [7]): catalyzed the hydrolysis

NH2-KSTGGKAPRK^GlutarylQLATKAARKS-COOH [glutaryl peptide]
Hydrolysis of acyl H3K18 peptide by SIRT7 (SIRT7 [7]): not detected

NH2-KSTGGKAPRK^MyristoylQLATKAARKS-COOH [myristoyl H3K18 peptide]
Hydrolysis of acyl H3K18 peptide by SIRT7 (SIRT7 [7]): catalyzed the hydrolysis

NH2-KSTGGKAPRK^OctanoylQLATKAARKS-COOH [octanoyl H3K18 peptide]
Hydrolysis of acyl H3K18 peptide by SIRT7 (SIRT7 [7]): catalyzed the hydrolysis

NH2-KSTGGKAPRK^SuccinylQLATKAARKS-COOH [succinyl H3K18 peptide]
Hydrolysis of acyl H3K18 peptide by SIRT7 (SIRT7 [7]): catalyzed the hydrolysis
